Assay results from US8557839B2, “Fused ring azadecalin glucocorticoid receptor modulators” (Corcept Therapeutics, Inc., priority 2004, dated 2013).

Experiments:
glucocorticoid receptors [1] = biological target: T1, glucocorticoid receptors (Homo sapiens, UniProt P04150); assay: Glucocorticoid receptor binding displacement assay with 3H-dexamethasone; set-up: This GR was a full-length steroid hormone receptor; host or cells: recombinant baculovirus-infected insect cells
T1 sequence (P04150 1-777): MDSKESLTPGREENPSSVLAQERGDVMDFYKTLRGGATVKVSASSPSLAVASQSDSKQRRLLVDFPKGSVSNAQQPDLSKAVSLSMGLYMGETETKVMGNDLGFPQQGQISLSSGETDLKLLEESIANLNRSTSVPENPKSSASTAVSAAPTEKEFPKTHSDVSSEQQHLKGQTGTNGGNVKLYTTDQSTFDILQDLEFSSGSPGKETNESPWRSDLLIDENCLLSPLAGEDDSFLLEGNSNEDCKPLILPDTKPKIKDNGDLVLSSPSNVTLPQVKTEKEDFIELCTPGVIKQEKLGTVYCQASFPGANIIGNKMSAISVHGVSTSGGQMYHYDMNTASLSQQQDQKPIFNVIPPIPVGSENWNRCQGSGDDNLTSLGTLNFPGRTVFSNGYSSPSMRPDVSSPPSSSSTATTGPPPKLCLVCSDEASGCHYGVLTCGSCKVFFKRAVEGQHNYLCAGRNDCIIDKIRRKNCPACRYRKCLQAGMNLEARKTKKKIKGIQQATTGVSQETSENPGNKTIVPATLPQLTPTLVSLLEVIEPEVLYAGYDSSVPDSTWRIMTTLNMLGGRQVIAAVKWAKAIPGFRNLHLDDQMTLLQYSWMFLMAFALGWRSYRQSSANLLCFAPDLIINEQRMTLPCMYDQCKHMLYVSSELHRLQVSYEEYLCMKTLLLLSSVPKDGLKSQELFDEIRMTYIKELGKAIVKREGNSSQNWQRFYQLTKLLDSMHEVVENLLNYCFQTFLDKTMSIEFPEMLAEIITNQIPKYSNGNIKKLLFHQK
Description: The source of the receptor was recombinant baculovirus-infected insect cells. This GR was a full-length steroid hormone receptor likely to be associated with heat-shock and other endogenous proteins.
For the Primary Screen, test compounds were tested at 1 μM in duplicate. These compounds were diluted from 10 mM stock in 100% DMSO. After dilution to 100 μM, 5 μl were added to 245 μl assay buffer to obtained 2 μM compound and 2% DMSO.
For the IC50 determinations, test compounds were tested at 6 concentrations in duplicate (concentration range depends on % inhibition binding that was obtained in the Primary Screen). Test compounds were diluted from 10 mM stock in 100% DMSO. The tested solutions were prepared at 2× final assay concentration in 2% DMSO/assay buffer.
All reagents and the assay plate were kept on ice during the addition of reagents. […] After the additions, the incubation mixture was mixed and incubated for 2.5 hrs at 4° C.
After 2.5 hrs incubation, unbound counts were removed with dextran coated charcoal (DCC) as follows: 25 μl of DCC solution (10% DCC in assay buffer) was added to all wells and mixed (total volume 225 μl). The plate was centrifuged at 4000 rpm for 10 minutes at 4° C. 75 μl of the supernatants (i.e.⅓ of total volume) was carefully pipetted into an optiplate. 200 μl of scintillation cocktail were added (Microscint-40, Packard Bioscience. B.V.). The plate was vigorously shaken for approx. 10 minutes and counted on Topcount.
The IC50 values were converted to Ki (the inhibition constant) using the Cheng-Prusoff equation.
Reagents: Assay buffer: 10 mM potassium phosphate buffer pH 7.6 containing 5 mM DTT, 10 mM sodium molybdate, 100 μM EDTA and 0.1% BSA.

glucocorticoid receptors [2] = biological target: T1, glucocorticoid receptors; assay: GR functional assay using SW1353/MMTV-5 cells (dexamethasone-induced luciferase); assay type: cell-based; set-up: contains endogenous glucocorticoid receptors; endogenous in cells; host or cells: SW1353/MMTV-5 (human chondrosarcoma, stably carrying the pMAMneo-Luc reporter)
Description: SW1353/MMTV-5 is an adherent human chondrosarcoma cell line that contains endogenous glucocorticoid receptors. It was transfected with a plasmid (pMAMneo-Luc) encoding firefly luciferase located behind a glucocorticoid-responsive element (GRE) derived from a viral promoter (long terminal repeat of mouse mammary tumor virus). A stable cell line SW1353/MMTV-5 was selected with geneticin, which was required to maintain this plasmid.
SW1353/MMTV-5 cells were distributed in 96-well plates and incubated in medium (without geneticin) for 24 hrs (in the absence of CO2).

[3] = Ki from IC50 by Cheng-Prusoff, 2.5 nM 3H-dexamethasone, read-out: GR Binding

CC(C)(C)c1ccc(S(=O)(=O)N2CCC3=Cc4c(cnn4-c4ccc(F)cc4)C[C@]3(Cc3ccccc3)C2)cc1
Ki (glucocorticoid receptors [1]; [3]): < 10 nM | Ki (glucocorticoid receptors [2]; read-out: GR Functional): < 10 nM

COc1ccc(-n2ncc3c2C=C2CCN(S(=O)(=O)c4ccc(C(C)(C)C)cc4)C[C@@]2(Cc2ccccc2)C3)cc1
Ki (glucocorticoid receptors [1]; [3]): < 10 nM | Ki (glucocorticoid receptors [2]; read-out: GR Functional): 10 to 100 nM

Cc1ccc(-n2ncc3c2C=C2CCN(S(=O)(=O)c4ccc(C(C)(C)C)cc4)C[C@@]2(Cc2ccccc2)C3)cc1
Ki (glucocorticoid receptors [1]; [3]): < 10 nM | Ki (glucocorticoid receptors [2]; read-out: GR Functional): > 100 nM

CC(C)(C)c1ccc(S(=O)(=O)N2CCC3=Cc4c(cnn4-c4ccccn4)C[C@]3(C)C2)cc1
Ki (glucocorticoid receptors [1]; [3]): 10 to 100 nM

O=S(=O)(c1ccccc1)N1CCC2=Cc3c(cnn3-c3ccc(F)cc3)C[C@]2(CO)C1
Ki (glucocorticoid receptors [1]; [3]): 10 to 100 nM

COCCCOC[C@]12Cc3cnn(-c4ccc(F)cc4)c3C=C1CCN(S(=O)(=O)c1ccc(C(C)(C)C)cc1)C2
Ki (glucocorticoid receptors [1]; [3]): < 10 nM | Ki (glucocorticoid receptors [2]; read-out: GR Functional): < 10 nM

CC(C)(C)c1ccc(S(=O)(=O)N2CCC3=Cc4c(cnn4-c4ccc(F)cc4)C[C@]3(COCCC#N)C2)cc1
Ki (glucocorticoid receptors [1]; [3]): < 10 nM | Ki (glucocorticoid receptors [2]; read-out: GR Functional): < 10 nM

CC(C)(C)c1ccc(S(=O)(=O)N2CCC3=Cc4c(cnn4-c4ccc(F)cc4)C[C@]3(COCCN3CCOCC3)C2)cc1
Ki (glucocorticoid receptors [1]; [3]): 10 to 100 nM | Ki (glucocorticoid receptors [2]; read-out: GR Functional): > 100 nM

CC(C)(C)c1ccc(S(=O)(=O)N2CCC3=Cc4c(cnn4-c4ccc(F)cc4)C[C@]3(COCCN3CCCCC3)C2)cc1
Ki (glucocorticoid receptors [1]; [3]): < 10 nM | Ki (glucocorticoid receptors [2]; read-out: GR Functional): 10 to 100 nM

COCCOC[C@]12Cc3cnn(-c4ccc(F)cc4)c3C=C1CCN(S(=O)(=O)c1ccc(F)cc1)C2
Ki (glucocorticoid receptors [1]; [3]): < 10 nM | Ki (glucocorticoid receptors [2]; read-out: GR Functional): < 10 nM

COC[C@]12Cc3cnn(-c4ccc(F)cc4)c3C=C1CCN(S(=O)(=O)c1ccc(F)cc1)C2
Ki (glucocorticoid receptors [1]; [3]): < 10 nM | Ki (glucocorticoid receptors [2]; read-out: GR Functional): 10 to 100 nM

COC[C@]12Cc3cnn(-c4ccc(F)cc4)c3C=C1CCN(S(=O)(=O)c1ccc(C)cc1)C2
Ki (glucocorticoid receptors [1]; [3]): < 10 nM | Ki (glucocorticoid receptors [2]; read-out: GR Functional): < 10 nM

COCCOC[C@]12Cc3cnn(-c4ccc(F)cc4)c3C=C1CCN(S(=O)(=O)c1ccccc1)C2
Ki (glucocorticoid receptors [1]; [3]): < 10 nM | Ki (glucocorticoid receptors [2]; read-out: GR Functional): < 10 nM

COC[C@]12Cc3cnn(-c4ccc(F)cc4)c3C=C1CCN(S(=O)(=O)c1ccccc1)C2
Ki (glucocorticoid receptors [1]; [3]): < 10 nM | Ki (glucocorticoid receptors [2]; read-out: GR Functional): 10 to 100 nM

COCCOC[C@]12Cc3cnn(-c4ccc(F)cc4)c3C=C1CCN(S(=O)(=O)N(C)C)C2
Ki (glucocorticoid receptors [1]; [3]): > 100 nM | Ki (glucocorticoid receptors [2]; read-out: GR Functional): > 100 nM

COC[C@]12Cc3cnn(-c4ccc(F)cc4)c3C=C1CCN(S(=O)(=O)N(C)C)C2
Ki (glucocorticoid receptors [1]; [3]): 10 to 100 nM | Ki (glucocorticoid receptors [2]; read-out: GR Functional): > 100 nM

CCCCS(=O)(=O)N1CCC2=Cc3c(cnn3-c3ccc(F)cc3)C[C@]2(COCCOC)C1
Ki (glucocorticoid receptors [1]; [3]): < 10 nM | Ki (glucocorticoid receptors [2]; read-out: GR Functional): 10 to 100 nM

COCCOC[C@]12Cc3cnn(C)c3C=C1CCN(S(=O)(=O)c1ccc(C(C)(C)C)cc1)C2
Ki (glucocorticoid receptors [1]; [3]): 10 to 100 nM | Ki (glucocorticoid receptors [2]; read-out: GR Functional): > 100 nM

CCCCn1ncc2c1C=C1CCN(S(=O)(=O)c3ccc(C(C)(C)C)cc3)C[C@@]1(COCCOC)C2
Ki (glucocorticoid receptors [1]; [3]): < 10 nM | Ki (glucocorticoid receptors [2]; read-out: GR Functional): 10 to 100 nM

COCCOC[C@]12Cc3cnn(C(C)C)c3C=C1CCN(S(=O)(=O)c1ccc(C(C)(C)C)cc1)C2
Ki (glucocorticoid receptors [1]; [3]): < 10 nM | Ki (glucocorticoid receptors [2]; read-out: GR Functional): 10 to 100 nM

COC[C@]12Cc3cnn(C(C)C)c3C=C1CCN(S(=O)(=O)c1ccc(C(C)(C)C)cc1)C2
Ki (glucocorticoid receptors [1]; [3]): 10 to 100 nM | Ki (glucocorticoid receptors [2]; read-out: GR Functional): > 100 nM

CCCCn1ncc2c1C=C1CCN(S(=O)(=O)c3ccc(C)cc3)C[C@@]1(COC)C2
Ki (glucocorticoid receptors [1]; [3]): 10 to 100 nM | Ki (glucocorticoid receptors [2]; read-out: GR Functional): > 100 nM

CC(C)(C)c1ccc(S(=O)(=O)N2CCC3=Cc4c(cnn4-c4ccc(F)cc4)C[C@]3(CN3CCC3)C2)cc1
Ki (glucocorticoid receptors [1]): < 10 nM | Ki (glucocorticoid receptors [2]): 10 to 100 nM

C=CCNC[C@]12Cc3cnn(-c4ccc(F)cc4)c3C=C1CCN(S(=O)(=O)c1ccc(C(C)(C)C)cc1)C2
Ki (glucocorticoid receptors [1]; [3]): < 10 nM | Ki (glucocorticoid receptors [2]; read-out: GR Functional): 10 to 100 nM
